Reference: PubChem BioAssay AID1117319 (Southern Research Institute, 2015)
Records with an inconclusive call do not appear.

The compounds below were run against Virion infectivity factor (Human immunodeficiency virus type 1 group M subtype B (isolate BH10)) + Virion infectivity factor (Human immunodeficiency virus type 1 group M subtype B (isolate BRU/LAI)) + Virion infectivity factor (Human immunodeficiency virus type 1 group M subtype B (isolate PCV12)) + Virion infectivity factor (Human immunodeficiency virus type 1 group M subtype B (isolate HXB2)) + DNA dC->dU-editing enzyme APOBEC-3G (Homo sapiens) (UniProt P69720+P69721+P69722+P69723+Q9HC16) (assay: inhibitors of Vif binding to APOBEC3G peptide, primary screen, biochemical, TR-FRET, GST-Vif 1-94, biotin-A3G peptide, dose response retest (AID 1117319);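 also: Vif residues 1-94 fused to GST binding biotinylated APOBEC3G peptide 110-148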).

Structure (SMILES) | IC50 [µM]
COc1ccc(CCNC(=O)c2ccc3nc(-c4ccco4)c(-c4ccco4)nc3c2)cc1OC | 0.45
COc1ccccc1NC(=O)c1oc2ccc(C)cc2c1C | 98
C=CCN=c1scc(-c2ccco2)n1/N=C/c1ccc(O)c(O)c1O | 1.38
Cc1nn(-c2ccccn2)c2c1C(=O)C(Br)CC2 (configuration not stated) | 3.41
O=C(NCCO)Nc1ccc2nc(-c3ccco3)c(-c3ccco3)nc2c1 | 0.24
CC1=CC2(O)OCCN(CCO)C2=CC1=O (configuration not stated) | 7.05
Cc1cccn2c(=O)c3cc(C(=O)NCc4ccco4)c(=N)n(CCc4ccccc4)c3nc12 | 34
CC1(OC(=O)C2CCCC2)C(=O)C=C2C=C(c3ccsc3)OC=C2C1=O (configuration not stated) | 8.75
Cc1ccc(-c2ccc(CCC(=O)O)n2NC(N)=S)cc1 | 11.5
CN(C)c1ccc(N=C/C=C2/N(C)c3ccccc3C2(C)C)cc1 | 2.19
CCN(CC)c1ccc(NC2CC(=O)N(CCc3ccc(OC)cc3)C2=O)cc1 (configuration not stated) | 6.97
CS(=O)(=O)N(CC(=O)Nc1ccc2c(c1)OCO2)Cc1ccccc1 | 94.7
CC1=C(C(=O)Nc2ccccc2)C(c2ccc(C)o2)n2c(s/c(=C\c3ccco3)c2=O)=N1 (configuration not stated) | 5.34
Cc1ccc(C)n1-c1sccc1C(=O)O | 1.92
Cc1ccc(C)c(NC(=O)CN(C)C(=O)c2cccc(-n3cccc3)c2)c1 | 15.4
COc1ccccc1NC(=O)c1cc2ccccc2o/c1=N\O | 67.4
Cc1ccc(C(=O)O)cc1-c1ccc(/C=C2/NC(=O)N(c3ccccc3)C2=O)o1 | 25.5
CC(C)(C)c1ccc(-c2nnc(SCCC#N)n2C2CCCC2)cc1 | 86.7
CN(C)[C@@H]1C(=O)C(C(=O)NCN2CCCC2)=C(O)[C@@]2(O)C(=O)C3=C(O)c4c(O)cccc4[C@@](C)(O)C3CC12 (some centres not stated) | 0.33
CC1OC(OCC2OC(Oc3c(-c4ccc(O)cc4)oc4cc(O)cc(O)c4c3=O)C(O)C(O)C2O)C(O)C(O)C1O (configuration not stated) | 11.8
CC1OC(CC(=O)O)CC2=C1C(=O)c1c(O)cccc1C2=O (configuration not stated) | 4.16

Structure (SMILES) | IC50 [µM]
O=[N+]([O-])c1ccc(/C=N/Nc2nc(N3CCCC3)nc(N3CCCC3)n2)o1 | 54.2
CSc1nc(N2CCOCC2)c2c3c(sc2n1)CCC3 | 42.1
CCC(=Nc1ccc(N)cc1)C1=C(O)C(C(=O)OC)C(C)(C)CC1=O (configuration not stated) | 2.01
O=[N+]([O-])c1ccc(O)c2ncccc12 | 46.5
O=c1cc(CO)oc(C(Nc2ccccn2)c2ccc(F)cc2)c1O (configuration not stated) | 85.7
COc1cccc(NS(=O)(=O)c2ccc3c(c2)C2C=CCC2C(c2ccc(C(=O)O)cc2)N3)c1 (configuration not stated) | 3.32
COc1ccc(-n2c(C)cc(C(=O)CSc3nn4c(=O)c(C(C)(C)C)nnc4s3)c2C)cc1 | 10.3
O=C(NC(=S)Nc1cccc(S(=O)(=O)NC2=NCCC2)c1)c1cc(-c2ccco2)nc2ccccc12 | 8.99
O=C(O)Cc1ccc(N=Nc2c(O)c(C(=O)O)cc3ccccc23)cc1 | 10.5
Cc1c(F)cccc1NC(=O)CCCCCC1NC(=O)NC1C (configuration not stated) | 0.78
CC1(C)N([O-])c2cc([N+](=O)[O-])ccc2[N+]1=O | 9.68
COc1ccc(NC(=O)c2cc(-c3ccco3)nc3ccccc23)cc1S(=O)(=O)N1CCOCC1 | 2.38
COc1cccc(-c2cn3nc4c(nc3n2)CCCC4)c1 | 17.6
Nc1ccc(N2CCN(CCCCN3C(=O)C4CCCN4C3=O)CC2)cc1 (configuration not stated) | 1.34
O=C(O)C1Nc2c(O)cc(Cl)c([N+](=O)[O-])c2C2C=CCC12 (configuration not stated) | 0.23
COc1cc(C2Nc3cccc4cccc(c34)N2)cc(OC)c1O | < 4.18
Cc1cc(C(F)(F)F)n2nc(C(=O)O)c(Cl)c2n1 | 79.9
Cc1ccc(N2C(=O)NC(=O)/C(=C\C=C\c3ccco3)C2=O)cc1 | 8.48
COC(=O)COc1ccc(S(=O)(=O)Nc2cc(OC)ccc2OC)cc1 | 5.05
O=C1CC(=O)N(Cc2ccco2)C(=S)N1 | 2.21
Cc1ccc(C)c(/C(O)=C2/C(=O)C(=O)N(CCN3CCOCC3)C2c2ccco2)c1 (configuration not stated) | 18.1

Structure (SMILES) | IC50 [µM]
CC(=O)c1sc2nc(-c3ccco3)ccc2c1N | 2.78
Oc1c(CN2CCOCC2)cc(CN2CCOCC2)c(O)c1O | 9.18
CCOC(=O)C(C)N1C(=O)S/C(=C\c2ccc(-c3ccccc3C(=O)O)o2)C1=O (configuration not stated) | 10.8
CC(=O)c1ccc2c(c1)C1C=CCC1C(c1ccncc1)N2 (configuration not stated) | 3.16
Cn1cccc1/C=C1\CCC/C(=C\c2cccn2C)C1=O | 3.09
COC(=O)CSc1nnc(CNC(=O)Cc2ccccc2)n1-c1ccccc1OC | 77.7
O=S(=O)(c1ccc(NC(=S)N/N=C/c2ccc(O)c(O)c2)cc1)N1CCOCC1 | 7.53
O=[N+]([O-])c1ccccc1NC(=S)N/N=C/c1ccc(O)c(O)c1 | 4.06
O=c1ccc2c(-c3ccccc3S(=O)(=O)O)c3ccc(O)c(O)c3oc-2c1O | 0.34
O=C1C(=Cc2ccco2)CCCC1=Cc1ccco1 | 12.1
Cc1cc(-c2cc(-c3ccc(Cl)cc3)nc(N)c2C#N)co1 | 12.4
CCCOc1ccc(N)cc1N | 7.66
O/N=C1\CCC\C1=C/c1ccco1 | 7.57
NC(=O)COC(=O)c1ccc(Oc2ccccc2)cc1 | 98.9
Cc1ccc2cc(CN(Cc3nnnn3Cc3ccco3)CC3CCCO3)c(=O)[nH]c2c1C (configuration not stated) | 34.4
CN(C)c1ccc(C=c2c3cc([N+](=O)[O-])ccc3n3c2cc(-c2ccccc2)[n+]3C)cc1 | 3.58
COc1cccc(-c2cc(C(=O)Nc3c(C)n(C)n(-c4ccccc4)c3=O)no2)c1 | 72.5
COc1ccc2nc(-c3ccco3)c(-c3ccco3)nc2c1 | 0.35
N#CC(C(=O)NCc1ccco1)c1nc2ccccc2nc1N1CCOCC1 (configuration not stated) | 51.7
Cc1cc(C)c(S(=O)(=O)N2CCCCC2)c(C)c1N(C)S(=O)(=O)c1ccc(Cl)cc1 | 13.2
O=C(O)CSc1c2c(nc3cc(C(=O)Nc4cccc(C(F)(F)F)c4)ccc13)CCC2 | 13.4

Structure (SMILES) | IC50 [µM]
O=C(/C=C/Nc1ccccc1Br)c1ccccn1 | 41.5
CCCn1nc(C(=O)Nc2cc(C(=O)OC)ccc2C)c2ccccc2c1=O | 86.5
CC(C)C1Nc2ccc(C(=O)O)cc2C2C=CCC21 (configuration not stated) | 8.06
CC1CCCCN1Cc1ccc(N(C)C)cc1 (configuration not stated) | 66.6
Cc1ccc(-c2c3c([nH]c(=S)c2C#N)CCCC3)o1 | 13.9
Cc1ccccc1-c1nc(CN2CCC(C(=O)N3CCN(c4ccccn4)CC3)CC2)c(C)o1 | 43.3
CCN(CC)c1ccc2oc(=O)c(C)nc2c1 | 2.87
Cn1cnnc1SC/C(O)=C(\C#N)c1nc2ccccc2[nH]1 | 19.7
CCCCn1c(SCC(=O)NCc2ccco2)nc2ccc(N3CCOCC3)cc2c1=O | 12.5
Cc1n[nH]c(=S)n(NC(=O)/C=C/C(=O)Nn2c(=S)[nH]nc(C)c2=O)c1=O | 2.38
Cc1cc(C(=O)CSc2nnnn2-c2ccccc2)c(C)n1CC1CCCO1 (configuration not stated) | 9.78
O=c1oc2c3c4c(cc2s1)CCCN4CCC3 | 9.54
N/C(=N\N=C/c1ccc(-c2ccc(O)c(C(=O)O)c2)o1)N[N+](=O)[O-] | 15.2
O=C(NCc1ccccc1Cl)c1csc2c1CCCCC2 | 8.35
Cc1nc2ncccn2c1-c1csc(NCc2ccco2)n1 | 1.22
COC/C=C/C1=CC2=CC(=O)C(C)(OC(=O)c3cnc4ccccc4n3)C(=O)C2=CN1c1ccccc1 (configuration not stated) | 2.74
Cc1cc(SCC(=O)N/N=C/c2ccc(O)c(O)c2O)c(C)cc1Br | 13.3
Cc1ccc(C)n1-c1cccc(C(=O)O)c1 | 0.72
CCN=c1scc(C)n1/N=C/c1ccc(O)c(O)c1O | 2.47
